This is an account of results in publication PMC5743070 (The Journal of Biological Chemistry, 2017).

Each structure is given as a SMILES string. Where two headings read alike, the source gives them in different places.

The target in the test is T1, TTD (UHRF1_121–286) (Homo sapiens, UniProt Q96T88).
T1 construct: UHRF1_121–286 corresponding to the TTD; made in house
T1 sequence (Q96T88 121-286): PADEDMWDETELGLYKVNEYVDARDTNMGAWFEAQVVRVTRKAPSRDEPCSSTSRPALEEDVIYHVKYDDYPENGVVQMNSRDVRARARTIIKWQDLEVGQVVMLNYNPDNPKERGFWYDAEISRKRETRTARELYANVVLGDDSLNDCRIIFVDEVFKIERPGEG
Description: (1H-15N) HSQC NMR titration of TTD. Format: binding. As to conditions: for Kd: HSQC titration, ~250 μM TTD, 5% DMSO, pH 7.5, 25 °C. An excerpt:
We designed a fragment library containing 2,040 compounds that was initially screened against isolated TTD (UHRF1_121–286) using a fluorescence polarization (FP) assay that tracked the displacement of a N-terminally tagged H3K9me3 peptide (H3K9me3(1–25)). From this screen, eight putative TTD-binding hits were identified. […] Because of limited commercial availability of the tricyclic amine, we focused only on BPC. The binding of this compound occurs close to (or within) the Arg^296-binding pocket; we observe significant perturbation of Trp^238 and Phe^278 resonances that form part of the pocket, and in Gly^236, which is directly adjacent to it (Fig. 4A and supplemental Fig. S5). We also see chemical shift changes in non-surface exposed residues that are close to or are in contact with the groove.
NMR samples were buffered in 20 mM sodium phosphate (pH 7.5), 150 mM NaCl, 5 mM DTT, 5 mM β-mercaptoethanol, 2 mM TCEP, and 10 μM ZnSO4. The protein concentration was between 200 and 300 μM for all samples. The data were collected at 25 °C on Bruker spectrometers equipped with cryoprobes and operating at 500, 600, or 800 MHz. The assignment of backbone TTD–PHD resonances was accomplished using the ABACUS method ([29]) for which standard backbone and ^15N-edited NOESY spectra were collected using ^15N/^13C/^2H- or ^15N/^13C-labeled protein. All 3D experiments were acquired using non-uniform sampling and processed using the software MDDGUI ([30]) or qMDD ([31]). ^15N-Labeled TTD–PHD was used to acquire ^15N T1 and T2 relaxation and ^1H-^15N heteronuclear NOE measurements ([32]) collected using standard Bruker pulse schemes in an interleaved manner. For T1 measurements, the variable delay was set to 0.1, 0.4, 0.8, 1.5, 2.0, 2.5, 3.5, and 5 s. For T2 measurements, the variable delay was set to 16, 32, 48, 64, 80, 96, 128, and 144 ms. The D1 was 3 s for all experiments. Reported values were the average from two measurements. All spectra were processed using NMRPipe ([33]) and analyzed with SPARKY ([34]).
Figure S5 (related to Fig. 4)
Binding of BPC in the groove of TTD. […]
labeled (at the N-terminus) H3K9me3(1-25) peptide, (B) ITC, and (C) DSF. (D) KD estimates of BPC bind-ing based on I211 and Y239 amide peak movement (where Δ(ppm) = ((ΔδHN)2 + (ΔδN/6.5)2 )1⁄2) in (1H-15N) HSQC spectra when the TTD is titrated with BPC. […]
as a function of TTD sequence resulting from BPC (blue) or PBR peptide (red) binding. (F) HSQC overlays […]
ment:protein), and PBR peptide ratios (bottom spectrum - from 1:1 to 5:1 peptide:protein). The protein con-centration was ~250 µM for all NMR experiments, and the DMSO concentration was 5% for NMR titrations […]
(1 picture or pasted object on this page, not shown here)

In general, Kd refers to the free concentration of one partner at which half of the binding sites on the other are occupied at equilibrium, for simple one-to-one binding. With `N=C(N)N1CCC(Cc2ccccc2)CC1` [BPC, 4-benzylpiperidine-1-carboximidamide], the “binding site on TTD by amide peak movement” value ((1H-15N) HSQC spectra of TTD) is on record as “occurs in the groove”. In addition, the dissociation constant (Kd) runs as follows: (residue I211, read-out: KD estimate from I211 amide peak movement) 78 µM; (residue Y239, read-out: KD estimate from Y239 amide peak movement) 76 µM.
